From US20070042959A1, “Thrombin-inhibiting peptides” (priority 1997, published 2007)

What was measured:
[1] = test system: blood clotting (human citrate plasma); assay: activated partial thromboplastin time (APTT), action on blood clotting; assay type: biochemical; settings: at low concentrations; pre-clinical data, see sample application 1
Method: The action of triabin and hirudin on blood clotting was measured by determining the activated partial thromboplastin time (APTT). 100 μl of human citrate plasma, 10 μl of inhibitor (triabin or hirudin) and 100 μl of APTT reagent (pathromtin from the Behring Company) were incubated for 3 minutes at 37° C. After 100 μl of a 25 mmol CaCl2 solution was added, the time until clots formed was measured. The measuring was carried out in a fibrometer of the Sarstedt Company. The results are indicated in an extension of the clotting time, which was measured without adding inhibitor.

[2] = clinical studies; easily overdosed; cited from earlier work

In the case of hirudin, the inhibition of clotting [1] is given as “inhibits at low concentrations” and the bleeding on overdosing [2] is given as “severe bleeding complications”.
